ChEMBL document CHEMBL4033774, “Class I HDAC Inhibitors: Potential New Epigenetic Therapeutics for Alcohol Use Disorder (AUD)” (J Med Chem, 2018)
One block for each compound: values may come before it.

Columns and labels:
Histone deacetylase 4 = Histone deacetylase 4 (Homo sapiens, UniProt P56524); assay: Inhibition of HDAC4 (unknown origin)
Histone deacetylase 2 [1] = molecular target: T1, Histone deacetylase 2 (Homo sapiens, UniProt Q92769); assay: Inhibition of HDAC2 (unknown origin)
Histone deacetylase 1 [2] = molecular target: T2, Histone deacetylase 1 (Homo sapiens, UniProt Q13547); assay: Inhibition of HDAC1 (unknown origin)
T2 sequence (Q13547 whole entry): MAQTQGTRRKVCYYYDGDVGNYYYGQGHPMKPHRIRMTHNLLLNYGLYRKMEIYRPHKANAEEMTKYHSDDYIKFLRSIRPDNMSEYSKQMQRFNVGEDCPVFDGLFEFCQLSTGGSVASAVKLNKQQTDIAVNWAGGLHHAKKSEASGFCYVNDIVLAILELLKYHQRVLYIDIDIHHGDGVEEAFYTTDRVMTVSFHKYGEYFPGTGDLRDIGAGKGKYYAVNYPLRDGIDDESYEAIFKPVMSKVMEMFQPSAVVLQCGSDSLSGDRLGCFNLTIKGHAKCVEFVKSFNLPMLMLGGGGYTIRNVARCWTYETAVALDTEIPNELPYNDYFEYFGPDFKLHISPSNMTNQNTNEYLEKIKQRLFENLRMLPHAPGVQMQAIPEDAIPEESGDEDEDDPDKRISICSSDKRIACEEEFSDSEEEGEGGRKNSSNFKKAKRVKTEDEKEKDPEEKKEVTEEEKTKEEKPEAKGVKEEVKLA

Histone deacetylase 3 = Histone deacetylase 3 (Homo sapiens, UniProt O15379); assay: Inhibition of HDAC3 (unknown origin)
Chain of Histone deacetylase 3 (O15379 whole entry): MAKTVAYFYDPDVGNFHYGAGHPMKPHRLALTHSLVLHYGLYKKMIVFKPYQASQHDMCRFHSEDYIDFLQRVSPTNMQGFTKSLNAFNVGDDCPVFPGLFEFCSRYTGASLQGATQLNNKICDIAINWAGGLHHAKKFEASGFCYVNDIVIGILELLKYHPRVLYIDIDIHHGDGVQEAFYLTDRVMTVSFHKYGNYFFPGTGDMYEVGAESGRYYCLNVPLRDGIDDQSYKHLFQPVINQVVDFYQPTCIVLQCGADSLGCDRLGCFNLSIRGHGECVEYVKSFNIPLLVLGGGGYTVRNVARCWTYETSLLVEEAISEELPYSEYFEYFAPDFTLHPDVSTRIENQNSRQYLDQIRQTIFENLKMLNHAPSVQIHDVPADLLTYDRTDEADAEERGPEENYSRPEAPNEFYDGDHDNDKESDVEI

[3] = molecular target: T3, Protein deacetylase HDAC6 (Homo sapiens, UniProt Q9UBN7); assay: Inhibition of HDAC6 (unknown origin)
T3 sequence (Q9UBN7 whole entry): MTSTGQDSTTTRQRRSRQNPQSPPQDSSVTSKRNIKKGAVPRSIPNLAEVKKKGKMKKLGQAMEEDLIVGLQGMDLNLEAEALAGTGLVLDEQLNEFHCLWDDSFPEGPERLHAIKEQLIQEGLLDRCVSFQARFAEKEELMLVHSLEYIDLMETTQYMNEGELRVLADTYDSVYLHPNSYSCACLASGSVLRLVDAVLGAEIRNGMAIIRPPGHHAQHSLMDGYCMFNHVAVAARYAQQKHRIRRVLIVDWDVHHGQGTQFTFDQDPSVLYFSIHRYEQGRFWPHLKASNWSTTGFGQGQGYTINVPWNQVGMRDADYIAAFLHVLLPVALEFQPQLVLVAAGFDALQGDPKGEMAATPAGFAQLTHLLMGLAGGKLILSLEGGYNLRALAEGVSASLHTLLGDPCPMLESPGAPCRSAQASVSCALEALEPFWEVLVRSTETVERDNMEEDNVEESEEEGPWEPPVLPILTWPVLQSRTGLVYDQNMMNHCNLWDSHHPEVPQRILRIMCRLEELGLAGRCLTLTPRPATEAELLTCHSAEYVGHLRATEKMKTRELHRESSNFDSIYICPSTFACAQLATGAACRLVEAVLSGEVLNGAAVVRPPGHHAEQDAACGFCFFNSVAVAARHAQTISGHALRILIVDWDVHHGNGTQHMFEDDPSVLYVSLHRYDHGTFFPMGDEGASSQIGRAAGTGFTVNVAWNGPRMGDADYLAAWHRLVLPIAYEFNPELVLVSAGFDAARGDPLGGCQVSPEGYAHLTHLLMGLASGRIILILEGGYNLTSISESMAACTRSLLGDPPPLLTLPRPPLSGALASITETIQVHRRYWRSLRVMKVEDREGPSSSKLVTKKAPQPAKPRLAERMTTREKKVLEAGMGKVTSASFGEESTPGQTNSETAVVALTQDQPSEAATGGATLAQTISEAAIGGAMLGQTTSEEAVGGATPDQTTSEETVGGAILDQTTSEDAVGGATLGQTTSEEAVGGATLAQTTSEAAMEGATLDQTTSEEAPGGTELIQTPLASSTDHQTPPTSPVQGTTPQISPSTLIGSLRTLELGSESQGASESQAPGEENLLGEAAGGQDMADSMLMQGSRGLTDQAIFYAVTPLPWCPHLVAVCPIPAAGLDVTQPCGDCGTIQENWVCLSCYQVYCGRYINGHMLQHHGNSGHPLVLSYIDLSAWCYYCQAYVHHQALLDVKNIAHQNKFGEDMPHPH

[4] = molecular target: T4, Polyamine deacetylase HDAC10 (Homo sapiens, UniProt Q969S8); assay: Inhibition of HDAC10 (unknown origin)
T4 sequence (Q969S8 whole entry): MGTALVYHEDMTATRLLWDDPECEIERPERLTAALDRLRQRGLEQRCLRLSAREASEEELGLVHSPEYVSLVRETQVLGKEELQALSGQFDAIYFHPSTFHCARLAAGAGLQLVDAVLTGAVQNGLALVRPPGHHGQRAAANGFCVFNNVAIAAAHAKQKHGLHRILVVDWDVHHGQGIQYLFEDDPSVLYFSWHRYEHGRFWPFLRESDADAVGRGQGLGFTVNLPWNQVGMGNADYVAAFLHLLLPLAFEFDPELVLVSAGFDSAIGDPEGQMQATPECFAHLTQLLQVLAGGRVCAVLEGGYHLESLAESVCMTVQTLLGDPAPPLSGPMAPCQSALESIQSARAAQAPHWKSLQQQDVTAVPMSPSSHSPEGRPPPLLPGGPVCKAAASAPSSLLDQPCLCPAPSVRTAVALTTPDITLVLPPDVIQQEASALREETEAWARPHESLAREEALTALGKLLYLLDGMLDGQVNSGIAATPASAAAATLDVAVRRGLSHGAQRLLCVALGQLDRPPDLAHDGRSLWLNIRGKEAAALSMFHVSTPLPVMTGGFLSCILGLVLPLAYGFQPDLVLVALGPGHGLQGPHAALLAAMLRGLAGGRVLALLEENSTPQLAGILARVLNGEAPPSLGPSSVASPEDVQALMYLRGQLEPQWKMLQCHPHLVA

Histone deacetylase 11 = molecular target: T5, Histone deacetylase 11 (Homo sapiens, UniProt Q96DB2); assay: Inhibition of HDAC11 (unknown origin)
T5 sequence (Q96DB2 whole entry): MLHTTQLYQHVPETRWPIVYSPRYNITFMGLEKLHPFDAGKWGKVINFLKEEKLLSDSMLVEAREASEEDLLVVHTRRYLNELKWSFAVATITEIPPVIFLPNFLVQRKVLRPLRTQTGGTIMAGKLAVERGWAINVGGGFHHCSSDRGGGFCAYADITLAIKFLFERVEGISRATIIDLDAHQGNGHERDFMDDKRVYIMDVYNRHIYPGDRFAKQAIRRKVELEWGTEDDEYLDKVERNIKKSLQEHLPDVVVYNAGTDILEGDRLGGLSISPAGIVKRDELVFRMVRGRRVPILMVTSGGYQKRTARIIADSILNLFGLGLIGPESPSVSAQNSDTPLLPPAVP

Mus musculus [5] = assay: Decrease in alcohol intake in C57BL/6J mouse at 50 mg/kg, ip relative to control; assay type: functional; set-up: scale not given: the % may be the effect or the level left
Rattus norvegicus = assay: Decrease in alcohol intake in rat assessed as operant alcohol self-administration at 50 mg/kg, ip administered once in a week relative to control; assay type: functional; set-up: scale not given: the % may be the effect or the level left
Mus musculus [6] = assay: Decrease in alcohol intake in C57BL/6J mouse at 100 mg/kg, ip relative to control; assay type: functional; set-up: scale not given: the % may be the effect or the level left
Histone deacetylase 2 [7] = molecular target: T1, Histone deacetylase 2; assay: Inhibition of full length 6His-tagged HDAC2 (unknown origin) expressed in baculovirus infected Sf9 insect cells incubated for 17 hrs in presence of FAM-labeled acetylated peptide substrate by fluorescence assay
Histone deacetylase 1 [8] = molecular target: T2, Histone deacetylase 1; assay: Inhibition of full length 6His-tagged HDAC1 (unknown origin) expressed in baculovirus infected Sf9 insect cells incubated for 17 hrs in presence of FAM-labeled acetylated peptide substrate by fluorescence assay
[9] = molecular target: T3, Protein deacetylase HDAC6; assay: Inhibition of full length 6His-tagged HDAC6 (unknown origin) expressed in baculovirus infected Sf9 insect cells incubated for 17 hrs in presence of FAM-labeled acetylated peptide substrate by fluorescence assay
Histone deacetylase 8 = molecular target: T6, Histone deacetylase 8 (Homo sapiens, UniProt Q9BY41); assay: Inhibition of full length 6His-tagged HDAC8 (unknown origin) expressed in baculovirus infected Sf9 insect cells incubated for 17 hrs in presence of FAM-labeled acetylated peptide substrate by fluorescence assay
T6 sequence (Q9BY41 whole entry): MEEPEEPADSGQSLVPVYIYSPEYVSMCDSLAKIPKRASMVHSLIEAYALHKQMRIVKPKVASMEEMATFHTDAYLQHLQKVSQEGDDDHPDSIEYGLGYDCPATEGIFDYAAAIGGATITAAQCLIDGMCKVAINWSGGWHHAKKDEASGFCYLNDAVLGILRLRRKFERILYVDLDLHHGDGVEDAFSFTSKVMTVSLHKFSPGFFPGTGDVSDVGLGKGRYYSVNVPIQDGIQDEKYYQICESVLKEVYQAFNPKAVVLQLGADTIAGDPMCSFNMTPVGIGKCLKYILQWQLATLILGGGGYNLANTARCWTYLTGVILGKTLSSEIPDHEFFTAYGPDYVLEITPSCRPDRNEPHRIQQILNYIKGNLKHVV

[10] = molecular target: T4, Polyamine deacetylase HDAC10; assay: Inhibition of C-terminal 6His-tagged HDAC10 (unknown origin) (632 to 669 residues) expressed in baculovirus infected Sf9 insect cells incubated for 17 hrs in presence of FAM-labeled acetylated peptide substrate by fluorescence assay

T1 sequence (Q92769 whole entry): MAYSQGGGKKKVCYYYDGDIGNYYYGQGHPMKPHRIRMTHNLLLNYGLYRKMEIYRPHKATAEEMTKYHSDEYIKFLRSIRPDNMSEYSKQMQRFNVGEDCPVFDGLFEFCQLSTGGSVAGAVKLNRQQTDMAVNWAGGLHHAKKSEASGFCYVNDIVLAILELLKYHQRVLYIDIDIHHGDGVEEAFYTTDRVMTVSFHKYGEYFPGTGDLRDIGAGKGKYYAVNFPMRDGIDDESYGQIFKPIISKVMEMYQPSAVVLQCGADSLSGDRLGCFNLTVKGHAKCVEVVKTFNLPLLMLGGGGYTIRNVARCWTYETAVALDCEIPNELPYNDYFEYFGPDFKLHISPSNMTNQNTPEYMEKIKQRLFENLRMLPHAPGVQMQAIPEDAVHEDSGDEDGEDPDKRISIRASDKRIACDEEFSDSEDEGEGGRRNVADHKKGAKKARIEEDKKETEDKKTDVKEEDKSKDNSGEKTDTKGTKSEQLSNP
Chain of Histone deacetylase 4 (P56524 whole entry): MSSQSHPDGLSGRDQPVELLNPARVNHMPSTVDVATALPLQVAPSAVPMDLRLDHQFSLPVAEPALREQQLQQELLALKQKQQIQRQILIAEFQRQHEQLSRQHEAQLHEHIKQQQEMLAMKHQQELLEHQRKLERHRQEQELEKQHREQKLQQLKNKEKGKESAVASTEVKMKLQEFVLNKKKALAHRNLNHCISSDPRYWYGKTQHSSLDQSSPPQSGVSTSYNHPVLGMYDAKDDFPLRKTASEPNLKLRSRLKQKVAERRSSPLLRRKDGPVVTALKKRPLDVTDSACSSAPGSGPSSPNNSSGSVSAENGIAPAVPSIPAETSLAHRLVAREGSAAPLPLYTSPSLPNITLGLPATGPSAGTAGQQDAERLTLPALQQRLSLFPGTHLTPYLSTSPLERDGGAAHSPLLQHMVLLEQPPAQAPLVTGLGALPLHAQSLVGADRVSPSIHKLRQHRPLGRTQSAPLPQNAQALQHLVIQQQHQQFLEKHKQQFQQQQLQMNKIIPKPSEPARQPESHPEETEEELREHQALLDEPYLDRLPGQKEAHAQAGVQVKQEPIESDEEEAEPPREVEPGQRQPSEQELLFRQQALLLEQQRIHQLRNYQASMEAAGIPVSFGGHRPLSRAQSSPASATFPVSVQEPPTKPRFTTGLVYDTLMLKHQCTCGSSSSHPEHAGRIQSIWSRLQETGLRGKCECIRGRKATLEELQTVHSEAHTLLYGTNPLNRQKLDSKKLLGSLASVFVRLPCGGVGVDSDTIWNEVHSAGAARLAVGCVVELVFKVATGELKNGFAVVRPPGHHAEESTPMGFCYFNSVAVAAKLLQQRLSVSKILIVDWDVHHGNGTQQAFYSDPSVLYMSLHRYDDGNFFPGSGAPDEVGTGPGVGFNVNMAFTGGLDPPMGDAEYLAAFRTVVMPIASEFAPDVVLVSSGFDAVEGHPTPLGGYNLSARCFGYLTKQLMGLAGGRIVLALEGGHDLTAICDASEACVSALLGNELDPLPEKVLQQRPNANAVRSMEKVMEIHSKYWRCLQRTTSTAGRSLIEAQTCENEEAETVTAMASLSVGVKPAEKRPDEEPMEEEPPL

IC50 (Histone deacetylase 4): > 20 µM
IC50 (Histone deacetylase 2 [1]): > 20 µM
IC50 (Histone deacetylase 1 [2]): 3 µM
IC50 (Histone deacetylase 3): 3 µM
IC50 [3]: > 20 µM
IC50 [4]: > 20 µM
IC50 (Histone deacetylase 11): > 20 µM
SMILES: COc1ccc(/C=C/C(=O)NO)c(-c2ccc(-c3ccccc3)cc2)c1

SMILES: O=C(CCCCCCC(=O)Nc1ccccc1)NO [VORINOSTAT]
Activity (Mus musculus [5]): 40%
Activity (Rattus norvegicus): 20%
Activity (Mus musculus [6]): 40%

IC50 (Histone deacetylase 2 [7]): > 30 µM
IC50 (Histone deacetylase 1 [8]): > 30 µM
IC50 [9]: > 30 µM
IC50 (Histone deacetylase 8): > 30 µM
IC50 [10]: > 30 µM
SMILES: Nc1ccccc1NC(=O)CCCCCCC(=O)Nc1cccc(-c2cn(-c3ccccc3)nn2)c1
